Several values for one entry are separate records, joined by “and”; a condition that tells them apart may be missing. Equal entries are not always repeated. Entries after “also recorded” stand apart in the source; their conditions may differ. Where two headings read alike, the source gives them in different places.
Legend:
[1] = for a topical application; cited from earlier work
HSV-1 [2] = conditions: cited from earlier work
HSV1 = assay: PCR-based assay of viral DNA, band intensity on agarose gel; assay type: cell-based; conditions: for DNA band intensity, primers for glycoprotein D, GFP and VP11/12: HSV1 treated with 75 μM
From the text: Nine sets of primers were designed to prime different regions of the HSV1 genome based on published sequences. Two sets of primers were designed to target HSV I glycoprotein D. These include 5′-[…]-3′ (SEQ ID NO:2) for the forward and 5′-[…]-3′ (SEQ ID NO:3) for the reverse. The second set includes 5′-[…]-3′ (SEQ ID NO:4) for the forward and 5′[…]-3′ (SEQ ID NO:5) for the reverse. Next, two sets of primers were designed to target HSV1 glycoprotein B. They are the following: 5′[…]-3′ (SEQ ID NO:6) for the forward and 5′-[…]-3′ (SEQ ID NO:7) for the reverse. The second set includes 5′-[…]-3′(SEQ ID NO:8) for the forward and 5′-[…]-3′ (SEQ ID NO:9) for the reverse. A third set of primers had been previously designed and published on the book Herpes Simplex Virus Protocols by S. Moira Brown and Alasdair R. MacLean. The set includes 5′[…]-3′ (SEQ ID NO:10) for the forward and 5′-[…]-3′ (SEQ ID NO:11) for the reverse. A set of primers was designed to target the Green Fluorescent protein attached to the UL46 gene of HSV 1. It includes 5′-[…]-3′ (SEQ ID NO:14) for the forward and 5′-[…]-3′ (SEQ ID NO:15) for the reverse. A second set of primers designed for the GFP had been previously designed 42. It includes 5′-[…]-3′ (SEQ ID NO:12) for the forward and 5′-[…]-3′ (SEQ ID NO:13) for the reverse. Finally, two sets of primers were designed to target HSV1 tegument protein VP11/12 that corresponds to the UL46 gene. They are the following: 5′-[…]-3′ (SEQ ID NO:16) for the forward and 5′-[…]-3′ (SEQ ID NO:17) for the reverse. The second set includes 5′-[…]-3′ (SEQ ID NO:18) for the forward and 5′[…]-3′ (SEQ ID NO:19) for the reverse. The reaction mix included 1 μL of the extracted DNA, 1 μL of forward and 1 μL of reverse primers, 12.5 μL of Master Mix, and 9.5 μL of diH2O. The mix was put into PCR tubes and placed into a Labnet MultiGene II thermal cycler (Labnet International, Edison N.J.). The reaction profile was initial denaturation at 95° C. for 2 minutes followed by cycles of denaturation at 95° C. for 30 seconds, annealing at 60° C. for 1 minute and extension at 72° C. for 30 seconds. The last step included a final extension period at 72° C. for 10 minutes. […]
Polymerase chain reaction products were analyzed and visualized on 1% agarose gels. […] The gel was then analyzed under UV light using Kodak Image Station 440 CF (Perkin Elmer Life Sciences, Waltham, Mass.).
Cells were grown on 60 mm plates and allowed to reach confluency. […] DNA concentration was then measured by using a Nanodrop Specrophotometer.
DNA extracted from HSV1/Vero cells and EGCG-ester HSV1/Vero cells was purified and isolated and the amount and purity was determined by Nanodrop spectrophotometer ND1000. […]

HSV = HSV plaque assays using Vero cells with and without EGCG (Example 1); assay type: cell-based; conditions: 100 μM applied
Protocol: HSV plaque assays using Vero cells were conducted with and without the addition of epigallocatechin gallate (EGCG).

HSV-1 [3] = conditions: antibodies against gB, gD, and a capsid protein; cited from earlier work
Vero cells = assay: Cell viability assay, trypan blue and hemocytometer direct cell count; conditions: for Dead cells / Live cells: FIG. 1 axis Vero cells/ml
Protocol: Vero cells were plated in 6 well plates and after a period of 24 hours different concentrations of EGCG or EGCG-ester (12.5, 25, 50, 75, 100 μM) were added to each well, respectively. After one hour, the polyphenols were aspirated and the cells were washed with PBS. DMEM media was put back into each well and cells were incubated for 24 hrs. Cells were then counted using a hemocytometer and trypan blue which stains the dead cells blue and leaves the live cells white.
The cell viability was determined by using trypan blue and hemacytometer direct cell count to detect the effect of EGCG-ester on Vero cells.

HSV-2 = conditions: Vero cells; cited from earlier work
HSV1-UL46 = assay: GFP expression study using a fluorometer; assay type: cell-based; conditions: 75 μM, virions treated 3 hours, cells 12 hrs
Protocol: GFP expression was studied in Escherichia coli that contained GFP plasmid, and Escherichia coli without GFP plasmid. The fluorometer used was a Tuner Digital Fluorometer-Model 450. Samples were put into 3 mLs of H2O and serial dilutions were performed from the first 3 mLs of each sample. A standard dilution curve was obtained from the serial dilutions. Next, Vero cells were grown on T-75 flasks and allowed to reach confluence. HSV1 virions were treated for 3 hours with 75 μM of polyphenols prior to cell infection. Cells were then infected with treated and non-treated HSV1-UL46 and allowed to adsorb for 1 hour. Viruses that had not been absorbed were then removed by washing the cells twice with PBS. The cells were then incubated at 37° C. for 12 hrs. Cells were then trypsinized and pelleted. Finally, cells were resuspended with 3 mLs of H2O and analyzed for GFP expression using a fluorometer. 3 ml of water was used as the blank sample. The Gain knob was set to 1000 for higher fluorescence sensitivity.
In this experiment, Vero cells only, HSV1/Vero cells, and 75 μM EGCG-ester-HSV1/Vero cells were used to quantitatively measure GFP expression.

[4] = Stability of the polyphenol (statements, no method); assay type: physicochemical; conditions: vaginal pH
[5] = 100 μM, Vero cells, replicate counts

For `O=C(O[C@@H]1Cc2c(O)cc(O)cc2O[C@@H]1c1cc(O)c(O)c(O)c1)c1cc(O)c(O)c(O)c1` [EGCG, (−)-epigallocatechin-3-gallate, reference compound], the stability [1] is given as “highly unstable and oxidizes very quickly”, the viral production (HSV-1 [2]; Vero cells treated following adsorption and entry of HSV-1) is given as “does not inhibit the viral production” and the “inhibition of HSV infection” value (HSV-1 [2]; Vero cells) is given as “successfully inhibited HSV infection in a concentration dependent manner”. The “DNA band intensity, primers for glycoprotein D, GFP and VP11/12” value (HSV1) was “decreased”, the viral plaques (HSV) was “no viral plaques were observed” and the “drop in immunogold labeling, treated compared to untreated virions” value (HSV-1 [3]) was 30% and 40%. For the same compound, the Cells (Vero cells; [5]) was 167 and 292 and 347, the Cells dead (Vero cells; [5]) was 119 and 134 and 184 and the “inhibition of HSV infection” value (HSV-2) was “successfully inhibited HSV infection in a concentration dependent manner”.

For `CCCCCCCCCCCCCCCC(=O)Oc1c(O)cc([C@H]2Oc3cc(O)cc(O)c3C[C@H]2OC(=O)c2cc(O)c(O)c(O)c2)cc1O` [EGCG-ester], the “GFP expression (fluorometer) compared to HSV1/Vero cells” value (HSV1-UL46) was “much lower”, the stability [4] was “stable at vaginal pH” and the “band intensity of glycoprotein D PCR product, average” value (HSV1; 75 μM, control average 525.29) was 400.05. For the same compound, the “band intensity of glycoprotein D PCR product (single reading)” value (HSV1; 75 μM, control readings 445.92, 588.24, 541.73) was 353.87 and 438.47 and 407.82, the “DNA band intensity, primers for glycoprotein D, GFP and VP11/12” value (HSV1) was “further decreased” and the “% of death” value (Vero cells; 12.5 μM) was 10%. For the same compound, the Dead cells (Vero cells; 12.5 μM) was 2.7E+06, the Live cells (Vero cells; 12.5 μM) was 2.56E+07 and the “% of death” value (Vero cells; 25 μM) was 10%. For the same compound, the Dead cells (Vero cells; 25 μM) was 2.95E+06, the Live cells (Vero cells; 25 μM) was 2.72E+07 and the “% of death” value (Vero cells; 50 μM) was 10%. For the same compound, the Dead cells (Vero cells; 50 μM) was 2.90E+06, the Live cells (Vero cells; 50 μM) was 2.89E+07 and the “% of death” value (Vero cells; 75 μM) was 10%. For the same compound, the Dead cells (Vero cells; 75 μM) was 1.70E+06, the Live cells (Vero cells; 75 μM) was 2.71E+07 and the maximum nontoxic concentration (Vero cells; Vero cells) was 75 µM. The “percentage of cell death” value (Vero cells; increasing concentration, compared to control) was “not changed; also recorded: did not change much”.

From patent US9446017B2, “Compositions and methods for treating herpes simplex virus” (Augusta University Research Institute, Inc., priority 2005, dated 2016)
